How the values were obtained:
[1] = test system: acetic acid-induced writhing; assay: inhibition of acetic acid-induced writhing in the rat (RW); type: in vivo, rat (male Sprague Dawley); settings: oral; for ED50: Rattus norvegicus
Description: (§1) In order to further detail the analgesic profiles of the compounds of the invention, their activities in the inhibition of acetic acid-induced writhing assay in the rat, the inhibition of cyclooxygenase assay and a modification of the Randall-Selitto analgesic test were also determined The test procedure used to determine the inhibition of acetic acid-inducedwrithing in the rat is described as follows.
Male Sprague Dawley rats (Taconic Farms) weighing between 160 and 200g were treated in a random and blind fashion with 1% gum tragacanth vehicle or test agent suspended or dissolved in 1% gum tragacanth. Rats were individually housed in plastic cages (28×18×12 cm) throughout the experiment. Forty-five minutes after drug treatment, 0.5 ml of 9% (w/v) acetic acid was administered intraperitoneally, and animals were returned to their cages for 10 minutes. Writhing is not normally seen during this 10 minute period. Each animal was then observed for a writhing response during a subsequent 10 minute interval (55-65 minutes post-drug treatment). A writhing response was defined as arching of the back with extension of the hindlimbs and contraction of abdominal muscles. […] Data were expressed as percent inhibition of the mean number of writhes in the vehicle treated control group. Data were evaluated for statistical significance by Dunnett's test, and ED50 's for inhibition of acetic acid-induced writhing were determined by the graded dose-response analysis of Tallarida and Murray, Manual of Pharmacologic Calculations with Computer Programs, Springer Verlag, New York (1981).
(§2) In the acetylcholine-induced abdominal constriction test, the test compounds were administered either as suspensions in gum tragacanth (GT) or as aqueous solutions prepared by addition of just sufficient dilute aqueous methanesulfonic acid (MS) or dilute aqueous lactic acid (LA) to dissolve the compound The compounds are identified by the example number above where their preparations are described All data in the anti-bradykinin, rat writhing and Randall-Selitto tests were obtained on oral administration.

cyclooxygenase = assay: inhibition of cyclooxygenase assay (CO); type: biochemical, mice
Description: as §1
The test procedure used to determine cyclooxygenase inhibitory activity is described as follows.
Male mice were decapitated and stomach and brain (cerebral cortex, hypothalamus and medulla) were rapidly dissected over ice. The brains were homogenized in 3 volumes of ice cold 0.1 M potassium phosphate buffer, pH 7.4 containing 10 mM EDTA and 1% BSA (w/v). The homogenate was centrifuged at 10,000 xg for 15 minutes. The resulting supernatant was decanted and centrifuged at 100,000 xg for 60 minutes yielding a crude microsomal pellet. The pellet was washed superficially three times in 3 volumes of 0.1 M potassium phosphate buffer before final resuspension in 1.5 volumes of 0.1 M potassium phosphate buffer containing 1 mM norepinephrine and 1 mM reduced glutathione. The microsomes (50 μl) were preincubated with 50 μl of indomethacin (0.3 μM), test compound or norepinephrine/glutathione-containing buffer for 5 minutes at room temperature. The enzyme reaction was initiated by the addition of 50 μl of ^14 C arachidonic acid to yield a final concentration of 10 μM. After a further incubation of 15 minutes at 37° C., the reaction was stopped by the addition of 50 μl of 4M formic acid. Blank values were determined by using microsomes boiled for 5 minutes but otherwise were treated similarly. The ^14 C-labelled material was extracted 3 times with 0.5 ml of ethyl acetate with intermediate centrifugations at 500 xg for 5 minutes to clarify the aqueous and organic phases. This procedure extracted >95% of the ^14 C-labelled materials. The ethyl acetate washes were added to tubes containing 5 μg each of PGE2, PGF2, PGD2, and 10 μg PGI2 in 25 μl of ethanol. The mixture was evaporated to dryness under nitrogen and the residue dissolved in 150 μl of chloroform:methanol (2:1). This solution was spotted on 5×20 cm silica gel plates and chromatographed with an ethyl acetate, trimethylpentane, acetic acid and water mixture (110:50:20:100 by volume) prepared by shaking the solvents and separating and discarding the organic phase. The prostaglandins were visualized in iodine vapor, the various spots were scraped, and the ^14 C-labelled prostaglandins quantitated by liquid scintillation spectroscopy in 10 ml of BIOFLUOR® or FLUORODYNE®.
as §2

[2] = test system: acetylcholine-induced abdominal constriction; assay: acetylcholine-induced abdominal constriction test (ACH); type: in vivo, mice; settings: for ED50: Mus musculus
From the text: (§3) The test procedures used to determine the analgesic activities of the compounds have been described in detail in the prior art and are as follows: The acetylcholine-induced abdominal constriction test, which is a primary analgesic screening test designed to measure the ability of a test agent to suppress acetylcholine-induced abdominal constriction in mice, described by Collier et al., Brit. J. Pharmacol. Chemotherap. 32, 295 (1968); a modification of the anti-bradykinin test, which is also a primary analgesic screening procedure, described by Berkowitz et al., J. Pharmacol. Exptl Therap. 177, 500-508 (1971), Blane et al., J. Pharm. Pharmacol 19, 367-373 (1967), Botha et al., Eur. J. Pharmacol. 6, 312-321 (1969) and Deffenu et al., J. Pharm. Pharmacol. 18, 135 (1966); the rat paw flexion test, described by Kuzuna et al., Chem. Pharm. Bull., 23, 1184-1191 (1975), Winter et al., J. Pharm. Exptl. Therap., 211, 678-685 (1979) and Capetola et al., J. Pharm. Exptl. Therap. 214, 16-23 (1980); and the mouse vas deferens adrenergic transmission test, described by Henderson et al., Brit. J. Pharmacol., 46, 764-766 (1972).
as §2

mouse vas deferens = mouse vas deferens adrenergic transmission test (MVD); settings: for IC50: concentration producing 50% of the maximum response; for MVD percent inhibition: 10 μM
From the text: as §3
As before, the compounds are identified by the example number above where their preparations are described.

bradykinin = assay: anti-bradykinin test (BDK/BRKD); type: in vivo; settings: oral, dose level 300
From the text: as §3, with “(1972). […]” for “(1972).”

[3] = p.o., dose level 100, aqueous methanesulfonic acid (MS)
[4] = 30 μM, negative values = increases over controls, not demonstrated to differ significantly
[5] = p.o., dose level 100, suspension in gum tragacanth (GT)

Cc1c(C(=O)c2cccc3ccccc23)c2cccc3c2n1C(CN1CCOCC1)CO3 (single isomer, unassigned; (+)) [2B(d), (+)-3-(4-morpholinylmethyl)-5-methyl-6-(1-naphthylcarbonyl)-2,3-dihydropyrrolo1,2,3-de]-1,4-benzoxazine methanesulfonate]
ED50 [1]: 7.5 mg/kg | CO percent inhibition (% I) (cyclooxygenase; 100 μM): 9% | ED50 ([2]; iv): 0.027 mg/kg | ED50 ([2]; po, aqueous methanesulfonic acid (MS)): 33 mg/kg | IC50 (mouse vas deferens): 0.43 ± 0.1 nM

COc1ccc(C(=O)c2c(C)n3c4c(cccc24)OCC3CN2CCOCC2)cc1 (single isomer, unassigned; (+)) [2H(d)]
IC50 (mouse vas deferens): 44 ± 13 nM

Cc1c(C(=O)c2cccc3c(Br)cc(Br)cc23)c2cccc3c2n1C(CN1CCOCC1)CO3 (single isomer, unassigned; (+)) [Example 2G, (+)-3-(4-morpholinylmethyl)-5-methyl-6-(5,7-dibromo-1-naphthylcarbonyl)-2,3-dihydropyrrolo[1,2,3-de]-1,4-benzoxazine]
IC50 (mouse vas deferens): 40 ± 5.4 nM

CS(=O)(=O)O.Cc1c(C(=O)c2cccc3ccccc23)c2cccc3c2n1C(CN1CCOCC1)CO3 (single isomer, unassigned; (-)) [2B(1), (-)-3-(4-morpholinylmethyl)-5-methyl-6-(1-naphthylcarbonyl)-2,3-dihydropyrrolo[1,2,3-de]-1,4-benzoxazine methanesulfonate]
RW percent inhibition ([1]; dose level 100): 12% | CO percent inhibition (% I) (cyclooxygenase; 100 μM): 10.4% | ACH percent inhibition ([2]; i.v., dose level 0.3): 20% | ACH percent inhibition ([2]; i.v., dose level 1): 40% | ACH percent inhibition ([2]; i.v., dose level 3): 10% | ACH percent inhibition ([2]; i.v., dose level 5.5): 30% | ACH percent inhibition ([2]; p.o., dose level 10, aqueous methanesulfonic acid (MS)): 10% | ACH percent inhibition ([2]; p.o., dose level 30, aqueous methanesulfonic acid (MS)): 10% | ACH percent inhibition [2, 3]: 10% | ACH percent inhibition ([2]; p.o., dose level 173, aqueous methanesulfonic acid (MS)): 30% | MVD percent inhibition (mouse vas deferens): 37% | IC50 (mouse vas deferens; methanesulfonate): > 10000 nM

COc1ccc(C(=O)c2c(C)n3c4c(cccc24)OCC3CN2CCOCC2)cc1 (single isomer, unassigned; (-)) [2H(1), (-)-3-(4-morpholinylmethyl)-5-methyl-6-(4-methoxybenzoyl) -2,3-dihydropyrrolo[1,2,3-de]-1,4-benzoxazine]
MVD percent inhibition (mouse vas deferens): 44% | IC50 (mouse vas deferens): > 10000 nM

Cc1c(C(=O)c2cccc3ccccc23)c2cccc3c2n1C(CN1CCOCC1)CO3 (stereo not drawn) [1B (CH3 SO3 H), 3-(4-morpholinylmethyl)-5-methyl-6-(1-naphthylcarbonyl)-2,3-dihydropyrrolo1,2,3-de]-1,4-benzoxazine methanesulfonate]
IC50 (mouse vas deferens): 6 ± 0.6 nM

Cc1c(C(=O)c2cccc3ccccc23)c2cccc3c2n1C(CN1CCOCC1)CO3 (stereo not drawn) [1B (base)]
IC50 (mouse vas deferens): 4 ± 2 nM

COc1ccc(C(=O)c2c(C)n3c4c(cccc24)OCC3CN2CCOCC2)cc1 (stereo not drawn) [Example 1A, 3-(4-morpholinylmethyl)-5-methyl-6-(4-methoxybenzoyl)-2,3-dihydropyrrolo[1,2,3-de]-1,4-benzoxazine]
RW percent inhibition ([1]; dose level 100): 50.6% | RW percent inhibition ([1]; dose level 300): 23% | CO percent inhibition (% I) (cyclooxygenase; [4]): 19% | ED50 ([2]; iv): 3.4 mg/kg | ACH percent inhibition [2, 3]: 30% | ACH percent inhibition [2, 5]: 20% | IC50 (mouse vas deferens): 123 ± 13 nM | BRKD percent inhibition (bradykinin): 0%

Cc1c(C(=O)c2ccc3ncccc3c2)c2cccc3c2n1C(CN1CCOCC1)CO3 (stereo not drawn) [Example 1C]
ED50 [1]: 3.5 mg/kg | CO percent inhibition (% I) (cyclooxygenase; [4]): -26.2% | ED50 ([2]; iv): 1.8 mg/kg | ED50 ([2]; po, vehicle not given): 27 mg/kg | ACH percent inhibition ([2]; s.c., dose level 100, suspension in gum tragacanth (GT)): 0% | IC50 (mouse vas deferens): 21 ± 0.65 nM

CCc1c(C(=O)c2ccc(OC)cc2)c2cccc3c2n1C(CN1CCOCC1)CO3 (stereo not drawn) [Example 2A, 3-(4-morpholinylmethyl)-5-ethyl-6-(4-methoxybenzoyl)-2,3-dihydropyrrolo[1,2,3-de]-1,4-benzoxazine]
ACH percent inhibition [2, 5]: 20% | MVD percent inhibition (mouse vas deferens): 27% | IC50 (mouse vas deferens): > 10000 nM

COc1ccc(C(=O)c2cn3c4c(cccc24)OCC3CN2CCOCC2)cc1 (stereo not drawn) [Example 2C, 3-(4-morpholinylmethyl)-6-(4-methoxybenzoyl)-2,3-dihydropyrrolo[1,2,3-de]-1,4-benzoxazine]
CO percent inhibition (% I) (cyclooxygenase; [4]): -8.9% | ED50 ([2]; iv): 3.9 mg/kg | ACH percent inhibition [2, 5]: 30% | IC50 (mouse vas deferens): 44 ± 9.8 nM

CS(=O)(=O)O.Cc1c(C(=O)c2ccccc2F)c2cccc3c2n1C(CN1CCOCC1)CO3 (stereo not drawn) [Example 2D, 3-(4-morpholinylmethyl)-5-methyl-6-(2-fluorobenzoyl)-2,3-dihydropyrrolo[1,2,3-de]-1,4-benzoxazine methanesulfonate]
ED50 ([2]; iv): 2 mg/kg | ACH percent inhibition [2, 3]: 30% | IC50 (mouse vas deferens): 76 ± 4 nM

CS(=O)(=O)O.Cc1c(C(=O)c2ccc(Br)c3ccccc23)c2cccc3c2n1C(CN1CCOCC1)CO3 (stereo not drawn) [Example 2E, 3-(4-morpholinylmethyl)-5-methyl-6-(4-bromo-1-naphthylcarbonyl)-2,3-dihydropyrrolo[1,2,3-de]-1,4-benzoxazine methanesulfonate]
ACH percent inhibition ([2]; p.o., dose level 100, aqueous lactic acid (LA)): 0% | ACH percent inhibition [2, 5]: 35% | IC50 (mouse vas deferens): 2.2 ± 0.2 nM

O=C(c1cccc2ccccc12)c1cn2c3c(cccc13)OCC2CN1CCOCC1 (stereo not drawn) [Example 2F]
ACH percent inhibition [2, 5]: 10% | IC50 (mouse vas deferens): 2 ± 0.03 nM

Cc1c(C(=O)c2cccc3ccccc23)c2cccc3c2n1CC(CN1CCOCC1)O3 (stereo not drawn) [Example 2I, 2-(4-morpholinylmethyl)-5-methyl-6-(1-naphthylcarbonyl-2,3-dihydropyrrolo1,2,3-de]-1,4-benzoxazine]
IC50 (mouse vas deferens): 4 ± 2 nM

(-)-3-(4-morpholinylmethyl)-5-methyl-6-(5,7-dibromonaphthylcarbonyl)-2,3-dihydropyrrolo[1,2,3-de]-1,4-benzoxazine methanesulfonate [Example 1E]
IC50 (mouse vas deferens): 2620 ± 1700 nM
